From PMC9953308, “The Mechanism of Enantioselective Neurosteroid Actions on GABAA Receptors” (Biomolecules, 2023)

Legend:
[1] = target: T1, α1β3 GABAA receptor (α1 subunit) (Homo sapiens, UniProt P14867); experiment: photoaffinity labeling ([…]) with middle-down MS identification of adducted residue; type: binding
T1 construct: gene GABRA1; human α1-8xHis-FLAG and human β3 GABAA receptor in HEK-T-Rex-293 membranes; with GABAA receptor β3 subunit (GABRB3)
T1 sequence (P14867 28-456): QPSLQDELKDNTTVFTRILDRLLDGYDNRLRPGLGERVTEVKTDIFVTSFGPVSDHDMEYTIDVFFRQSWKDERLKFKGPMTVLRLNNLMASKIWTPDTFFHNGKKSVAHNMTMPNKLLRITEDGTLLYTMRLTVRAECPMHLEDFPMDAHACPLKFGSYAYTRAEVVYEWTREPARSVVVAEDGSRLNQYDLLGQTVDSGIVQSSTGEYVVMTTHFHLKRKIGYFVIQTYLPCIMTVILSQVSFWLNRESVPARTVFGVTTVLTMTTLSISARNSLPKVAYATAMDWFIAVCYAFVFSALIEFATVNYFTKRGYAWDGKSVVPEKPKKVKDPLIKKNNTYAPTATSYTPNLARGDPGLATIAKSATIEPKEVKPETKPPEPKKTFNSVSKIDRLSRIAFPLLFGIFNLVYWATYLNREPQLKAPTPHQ
T1 sequence (P28472 26-473 partner): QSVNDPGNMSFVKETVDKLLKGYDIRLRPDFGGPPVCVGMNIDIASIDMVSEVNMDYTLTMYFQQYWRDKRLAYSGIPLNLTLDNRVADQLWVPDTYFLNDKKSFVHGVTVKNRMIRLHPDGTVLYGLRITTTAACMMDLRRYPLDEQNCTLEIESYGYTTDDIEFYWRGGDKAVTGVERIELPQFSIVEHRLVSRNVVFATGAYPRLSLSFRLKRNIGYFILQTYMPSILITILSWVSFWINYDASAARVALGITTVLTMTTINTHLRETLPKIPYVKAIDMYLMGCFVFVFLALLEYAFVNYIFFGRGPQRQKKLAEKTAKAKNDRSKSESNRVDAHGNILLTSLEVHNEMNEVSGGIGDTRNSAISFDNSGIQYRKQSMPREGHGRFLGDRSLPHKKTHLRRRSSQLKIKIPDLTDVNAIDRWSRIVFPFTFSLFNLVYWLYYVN

[2] = target: T2, α1β3 GABAA receptor (β3 subunit; β3-α1 intersubunit site) (Homo sapiens, UniProt P14867+P28472); experiment: competitive prevention of KK200/KK123 photolabeling with MS readout; EC50 from oocyte two-electrode voltage clamp (potentiation of GABA currents); type: cell-based
T2 construct: gene GABRB3; human α1-8xHis-FLAG and human β3 GABAA receptor in HEK-T-Rex-293 membranes; human α1β3 in Xenopus oocytes for EC50; with GABAA receptor α1 subunit (GABRA1)
T2 sequence (P28472 26-473): T1 sequence (P28472 26-473 partner)
T2 sequence (P14867 28-456): T1 sequence (P14867 28-456)

[3] = target: T2, α1β3 GABAA receptor (β3 subunit; β3-α1 intersubunit site); experiment: competitive prevention of KK123 photolabeling with MS readout; EC50 from oocyte two-electrode voltage clamp (weak potentiation of GABA currents); type: cell-based

For `C#CCCO[C@@H]1C[C@@]2(C)[C@@H]3CC[C@]4(C)[C@H](CC[C@H]4OC)[C@H]3CC3(N=N3)[C@@H]2C[C@H]1O` [KK152], which “photoaffinity labeling (30 μM) with middle-down MS identification of adducted re” value [1] is on record?
Its value is “A fragmentation ion spectrum of this peptide identified Tyr415 as the site of KK152 adduction”.

For `CC(=O)[C@H]1CC[C@H]2[C@@H]3CC[C@H]4C[C@H](O)CC[C@]4(C)[C@H]3CC[C@]12C` [ALLO, 3α-hydroxy-5α-pregnan-20-one], which EC50 [2] is on record?
Its EC50 is 80 ± 10 nM.

Which EC50 [3] does the source give for `CC(=O)[C@@H]1CC[C@@H]2[C@H]3CC[C@@H]4C[C@@H](O)CC[C@@]4(C)[C@@H]3CC[C@]21C` [ent-ALLO, ent-allopregnanolone] here?
The EC50 was 2000 ± 300 nM.
